From patent US4877774A, “Administration of steroid hormones” (The United States of America as represented by the …, priority 1987, dated 1989)
In brackets after ≈: the same amount, converted by molar mass. Several values for one entry are separate records, joined by “and”; a condition that tells them apart may be missing. Equal entries are not always repeated.

Experiments:
[1] = phase-solubility of testosterone-gamma-cyclodextrin system in water, 25° C.
Procedure: The appropriate proportions in the mixture can be determined by examining the descending curvature of the Bs-type phase solubility of FIG. 1.
The appropriate mixture was determined by examining the descending curvature of the Bs-type phase solubility diagram, as shown in FIG. 1. […] The complex, which precipitated as a microcrystalline powder, was removed by filtration and dried under vacuum at room temperature for 24 hours.

physchem = settings: water
Procedure: The dissolution rates of testosterone alone or its release from complexes of interest were measured and compared with published data.

[2] = human trial; cited from earlier work
amylases of human saliva = settings: cited from earlier work

## C[C@]12CC[C@H]3[C@@H](CCC4=CC(=O)CC[C@@]43C)[C@@H]1CC[C@@H]2O [testosterone]
[1]; concentration of testosterone in water (without cyclodextrin), 25° C.
  solubility: 130 µM and 37 µg/mL
[1]; gamma-cyclodextrin, limit value of testosterone concentration, with gamma-cyclodextrin, 25° C.
  solubility: 1210 µM and 350 µg/mL
[1]; gamma-cyclodextrin, maximal solubilization of testosterone, with gamma-cyclodextrin, 25° C.
  solubility: 8700 µM and 2500 µg/mL
physchem
  solubility: 37 µg/mL (≈ 128 µM)

## OC[C@H]1O[C@@H]2O[C@H]3[C@H](O)[C@@H](O)[C@@H](O[C@H]4[C@H](O)[C@@H](O)[C@@H](O[C@H]5[C@H](O)[C@@H](O)[C@@H](O[C@H]6[C@H](O)[C@@H](O)[C@@H](O[C@H]7[C@H](O)[C@@H](O)[C@@H](O[C@H]8[C@H](O)[C@@H](O)[C@@H](O[C@H]1[C@H](O)[C@H]2O)O[C@@H]8CO)O[C@@H]7CO)O[C@@H]6CO)O[C@@H]5CO)O[C@@H]4CO)O[C@@H]3CO [beta-cyclodextrin]
[2]
  administration of testosterone, estradiol, or progesterone: marginal

## OC[C@H]1O[C@@H]2O[C@H]3[C@H](O)[C@@H](O)[C@@H](O[C@H]4[C@H](O)[C@@H](O)[C@@H](O[C@H]5[C@H](O)[C@@H](O)[C@@H](O[C@H]6[C@H](O)[C@@H](O)[C@@H](O[C@H]7[C@H](O)[C@@H](O)[C@@H](O[C@H]8[C@H](O)[C@@H](O)[C@@H](O[C@H]9[C@H](O)[C@@H](O)[C@@H](O[C@H]1[C@H](O)[C@H]2O)O[C@@H]9CO)O[C@@H]8CO)O[C@@H]7CO)O[C@@H]6CO)O[C@@H]5CO)O[C@@H]4CO)O[C@@H]3CO [gamma-cyclodextrin]
[1]; water
  solubility: 168 mM (≈ 218 mg/mL)
Amylases of human saliva
  susceptibility to the amylases of human saliva: susceptible
